Two compounds from US8329179B2, “Death domain containing receptor 4 antibodies and methods” (Human Genome Sciences, Inc., priority 1997, dated 2012) can be followed below.

In assay [1] the test system is DR4-induced apoptosis in MCF7 human breast carcinoma cells and 293 human embryonic kidney cells. As to the kind of experiment: DR4-induced apoptosis cell death assay (transient transfection, X-Gal staining). Format: cell-based. To be noted: z-VAD-fmk added at 10 μM, 5 hrs after transfection; cells stained 32 hours following transfection. The procedure: Overexpression of Fas/APO-1 and TNFR-1 in mammalian cells mimics receptor activation (M. Muzio, et al., Cell 85, 817-827 (1996); M. P. Boldin, et al, Cell 85, 803-815 (1996)). Thus, this system was utilized to study the functional role of DR4. Transient expression of DR4 in MCF7 human breast carcinoma cells and 293 human embryonic kidney cells induced rapid apoptosis.
Cell death assays are performed essentially as previously described (A. M. Chinnaiyan, et al., Cell 81, 505-12 (1995); M. P. Boldin, et al, J Biol Chem 270, 7795-8 (1995); F. C. Kischkel, et al., EMBO 14, 5579-5588 (1995); A. M. Chinnaiyan, et al., J Biol Chem 271, 4961-4965 (1996)). Briefly, MCF-7 human breast carcinoma clonal cell lines stably transfected with either vector alone or a CrmA expression construct (M. Tewari, et al., J Biol Chem 270, 3255-60 (1995)), are transiently transfected with pCMV-DR4-galactosidase (or pCMV-DR4-galactosidase (lacking the death domain)) in the presence of a ten-fold excess of pcDNA3 expression constructs encoding the indicated proteins using lipofectamine (GIBCO-BRL). 293 cells are likewise transfected using the CaPO4 method. The ICE family inhibitor z-VAD-fmk (Enzyme Systems Products, Dublin, Calif.) is added to the cells at a concentration of 10 μM, 5 hrs after transfection. […]

Assay [2] relates to DR4-induced apoptosis. As to the kind of experiment: Cell death assay: DR4-induced apoptosis in cells transiently transfected with a DR4 expressing construct, with death protease inhibitors. To be noted: FIG. 5C. In kind it is cell-based, human.
For assay [3], the system named is TRAIL-induced apoptosis in MCF7 cells. As to the kind of experiment: Blocking of TRAIL-induced apoptosis in MCF7 cells by receptor-Fc fusions. Format: cell-based, human. To be noted: FIG. 6A.

“Also recorded” adds a separate entry of the source. Where a SMILES comes first, the peptide text is derived from it. The star is where a group is joined. Cbz = O=C(OCc1ccccc1)*; CH2F = FC*

As to `COC(=O)C[C@H](NC(=O)[C@H](C)NC(=O)[C@@H](NC(=O)OCc1ccccc1)C(C)C)C(=O)CF` [z-VAD-fmk] (Cbz-Val-Ala-Asp(OMe)-CH2F), the DR4-induced apoptosis result in assay [1] is on record as “blocked”. The results for the “Blocking of DR4-induced apoptosis” value in assay [2] and in assay [2] (listed as z-VAD-fink) were “inhibit the apoptotic action of DR4; also recorded: efficiently blocked” and “blocked”, respectively.
As for “CD95-Fc: extracellular domain of CD-95 expressed as Fc fusion”, the “Blocking of the ability of TRAIL to induce apoptosis” value in assay [3] was “not influenced”.
